Assay results: paper PMC9403976, “Elucidating the path to Plasmodium prolyl-tRNA synthetase inhibitors that overcome halofuginone resistance” (Nature Communications, 2022)
Values joined by “and” are separate entries in the source; they are usually repeats but may differ in a detail not shown here. Equal values may be shown once. Read-outs that look alike come from different tables or passages of the source.

Assays:
HsProRS = HsProRS (Homo sapiens, UniProt P07814); experiment: TR-FRET ligand displacement assay with tracer MAT379 (CoraFluor-1-Halo and anti-His6 antibody formats); type: binding; set-up: made in house; host or cells: E. coli SoluBL-21; conditions: for HsProRS % signal at 10 μM: no added proline/ATP (-)
P. falciparum Dd2-2D4 = experiment: P. falciparum asexual blood stage (ABS) growth assay, SYBR Green, 72 h, wild-type parasites; type: cell-based, Plasmodium falciparum; conditions: Plasmodium falciparum, DD2; SI Fig 16b; values on -log scale; read-out: ABS - Dd2-2D4 (converted)
PfcProRS = target: T1, PfcProRS (Plasmodium falciparum, UniProt Q8I5R7); type: binding; conditions: replicates 1-3
T1 construct: made in house; host or cells: E. coli SoluBL-21

[1] = read-out: HsProRS IC50 + 100 μM proline, + 100 μM proline

HsProRS, sequence (P07814 996-1512): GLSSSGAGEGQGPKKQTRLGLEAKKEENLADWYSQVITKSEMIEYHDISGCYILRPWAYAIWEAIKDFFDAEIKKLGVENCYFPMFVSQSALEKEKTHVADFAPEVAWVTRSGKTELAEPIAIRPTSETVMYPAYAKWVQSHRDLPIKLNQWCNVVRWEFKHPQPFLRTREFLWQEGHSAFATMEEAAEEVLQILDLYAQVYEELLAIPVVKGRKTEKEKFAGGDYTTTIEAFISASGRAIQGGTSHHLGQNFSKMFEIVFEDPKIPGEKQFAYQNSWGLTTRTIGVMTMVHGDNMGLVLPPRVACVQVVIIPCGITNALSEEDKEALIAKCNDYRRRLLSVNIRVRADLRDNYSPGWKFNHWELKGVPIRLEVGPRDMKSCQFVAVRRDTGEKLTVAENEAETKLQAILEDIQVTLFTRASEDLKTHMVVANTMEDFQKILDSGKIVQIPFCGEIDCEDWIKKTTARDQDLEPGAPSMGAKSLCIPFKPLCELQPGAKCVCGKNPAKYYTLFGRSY
T1 sequence (Q8I5R7 249-746): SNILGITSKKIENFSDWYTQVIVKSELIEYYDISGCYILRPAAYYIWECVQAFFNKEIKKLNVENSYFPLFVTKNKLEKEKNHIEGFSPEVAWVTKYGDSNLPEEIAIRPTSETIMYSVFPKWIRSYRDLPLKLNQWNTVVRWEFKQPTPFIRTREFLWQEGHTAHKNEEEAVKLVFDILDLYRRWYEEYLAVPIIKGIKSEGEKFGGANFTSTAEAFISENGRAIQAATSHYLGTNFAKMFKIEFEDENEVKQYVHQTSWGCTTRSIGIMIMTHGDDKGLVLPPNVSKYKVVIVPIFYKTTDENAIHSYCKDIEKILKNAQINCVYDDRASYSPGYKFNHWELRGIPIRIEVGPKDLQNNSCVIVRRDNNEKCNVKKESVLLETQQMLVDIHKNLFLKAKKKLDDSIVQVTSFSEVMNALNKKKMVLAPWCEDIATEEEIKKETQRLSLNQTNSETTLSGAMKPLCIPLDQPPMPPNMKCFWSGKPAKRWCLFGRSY

Row | Compound | IC50 (HsProRS) | HsProRS % signal at 10 μM, + 100 μM proline (HsProRS; + 100 μM proline) | HsProRS % signal at 10 μM (HsProRS) | IC50 (HsProRS; [1]) | EC50 (P. falciparum Dd2-2D4) | Normalized response, dose-response replicates (SI Fig 14) (PfcProRS; Log[inhibitor] (M) -5.000) | Normalized response, dose-response replicates (SI Fig 14) (PfcProRS; Log[inhibitor] (M) -5.301) | Normalized response, dose-response replicates (SI Fig 14) (PfcProRS; Log[inhibitor] (M) -5.601) | Normalized response, dose-response replicates (SI Fig 14) (PfcProRS; Log[inhibitor] (M) -5.904) | Normalized response, dose-response replicates (SI Fig 14) (PfcProRS; Log[inhibitor] (M) -6.208) | Normalized response, dose-response replicates (SI Fig 14) (PfcProRS; Log[inhibitor] (M) -6.509) | Normalized response, dose-response replicates (SI Fig 14) (PfcProRS; Log[inhibitor] (M) -6.796) | Normalized response, dose-response replicates (SI Fig 14) (PfcProRS; Log[inhibitor] (M) -7.108) | Normalized response, dose-response replicates (SI Fig 14) (PfcProRS; Log[inhibitor] (M) -7.409) | Normalized response, dose-response replicates (SI Fig 14) (PfcProRS; Log[inhibitor] (M) -7.710) | Normalized response, dose-response replicates (SI Fig 14) (PfcProRS; Log[inhibitor] (M) -8.000) | Normalized response, dose-response replicates (SI Fig 14) (PfcProRS; Log[inhibitor] (M) -8.301) | Normalized response, dose-response replicates (SI Fig 14) (PfcProRS; Log[inhibitor] (M) -8.602) | Normalized response, dose-response replicates (SI Fig 14) (PfcProRS; Log[inhibitor] (M) -9.000) | Normalized response, dose-response replicates (SI Fig 14) (PfcProRS; Log[inhibitor] (M) -9.301)
1 | O=C(NC1CCCCC1)c1nccnc1NC(=O)C1Cc2ccccc2C1 [compound 49] | > 10 µM | 103% | 90.3% | > 10 µM | 6.81 µM | 8.45E-01 and 8.81E-01 and 7.61E-01 | 9.54E-01 and 9.61E-01 and 9.77E-01 | 1.16E+00 and 9.36E-01 and 1.07E+00 | 8.95E-01 and 1.06E+00 and 1.02E+00 | 1.16E+00 and 9.70E-01 and 1.06E+00 | 1.04E+00 and 1.06E+00 and 1.11E+00 | 1.05E+00 and 9.78E-01 and 1.11E+00 | 1.04E+00 and 1.10E+00 and 1.05E+00 | 1.08E+00 and 9.76E-01 and 1.10E+00 | 9.25E-01 and 1.04E+00 and 1.10E+00 | 1.07E+00 and 1.04E+00 and 1.10E+00 | 9.50E-01 and 1.14E+00 and 9.21E-01 | 9.83E-01 and 1.05E+00 and 9.81E-01 | 1.05E+00 and 1.09E+00 and 1.08E+00 | 1.08E+00 and 1.02E+00 and 9.82E-01
2 | O=C(NC1Cc2ccccc2C1)c1nccnc1NS(=O)(=O)C1CCCCC1 [compound 50] | > 10 µM | 84.5% | 87.7% | > 10 µM | 13 µM | 8.68E-01 and 9.74E-01 and 9.94E-01 | 9.83E-01 and 9.53E-01 and 9.64E-01 | 9.71E-01 and 9.90E-01 and 1.02E+00 | 1.05E+00 and 1.15E+00 and 1.14E+00 | 1.03E+00 and 9.74E-01 and 1.18E+00 | 1.04E+00 and 9.48E-01 and 1.06E+00 | 9.91E-01 and 1.03E+00 and 9.32E-01 | 9.63E-01 and 9.98E-01 and 1.15E+00 | 9.71E-01 and 8.81E-01 and 1.12E+00 | 9.98E-01 and 1.04E+00 and 1.13E+00 | 1.13E+00 and 9.44E-01 and 9.76E-01 | 8.99E-01 and 9.55E-01 and 8.96E-01 | 9.78E-01 and 9.85E-01 and 1.02E+00 | 9.55E-01 (2×) and 1.01E+00 | 9.48E-01 and 9.83E-01 and 9.54E-01
